Test results published in US20220340566A1, “BENZYL AMINE-CONTAINING 5,6-HETEROAROMATIC COMPOUNDS USEFUL AGAINST MYCOBACTERIAL INFECTION” (priority 2019, published 2022).
Read-outs that look alike come from different tables or passages of the source.

How the values were obtained:
[1] = Metabolic stability test in pooled human liver microsomes; format: in vitro ADME; details: human liver microsomes 0.5 mg protein/mL, 1 mmol/L NADPH, 37° C., 30 minutes
Protocol: Using a commercially available pooled human liver microsomes, a compound of the present invention was reacted for a constant time, a remaining rate was calculated by comparing a reacted sample and an unreacted sample, thereby, a degree of metabolism in liver was assessed.
A reaction was performed (oxidative reaction) at 37° C. for 0 minute or 30 minutes in the presence of 1 mmol/L NADPH in 0.2 mL of a buffer (50 mmol/L Tris-HCl pH 7.4, 150 mmol/L potassium chloride, 10 mmol/L magnesium chloride) containing 0.5 mg protein/mL of human liver microsomes. After the reaction, 50 μL of the reaction solution was added to 100 μL of a methanol/acetonitrile=1/1 (v/v), mixed and centrifuged at 3000 rpm for 15 minutes. The compound of the present invention in the supernatant was quantified by LC/MS/MS or solid phase extraction (SPE)/MS, and a remaining amount of the compound of the present invention after the reaction was calculated, letting a compound amount at 0 minute reaction time to be 100%.

[2] = system: Mycobacterium avium ATCC700898; assay: Determination of IC85 against M. avium (resazurin fluorescence); format: cell-based; details: 37° C., 3 days incubation then resazurin, fluorescence one day later
[3] = Mycobacterium avium, ATCC700898, M. avium ATCC700898, CAMHB medium, read-out: IC85
[4] = M. avium ATCC700898, CAMHB medium

Row | Structure (SMILES) | MS_h_% (remaining amount of compound after reaction, 0 minute = 100%) [1] [%] | IC85 [2, 3] [nM] | IC85 [2, 4] [nM]
1 | Cc1ccn2c(C(=O)NCc3ccc(C4CCN(c5ccc(OC(F)(F)F)cc5)CC4)c(F)c3)c(C)nc2c1 [Compound I-1-1] | 75 | 17 | –
2 | Cc1ccn2c(C(=O)NCc3ccc(N4CCN(c5ccc(OC(F)(F)F)cc5)[C@@H](C)C4)c(F)c3)c(C)nc2c1 [Compound I-1-2] | 86 | 21 | –
3 | CCc1nc2ccc(Cl)cn2c1C(=O)NCc1ccc(N2CCN(c3ccc(OC(F)(F)F)cc3)[C@@H](C)C2)c(F)c1 [Compound I-1-3] | 66 | 3 | –
4 | Cc1ccn2c(C(=O)NCc3ccc(C4CCN(c5ccc(OC(C)C)cc5)CC4)c(F)c3)c(C)nc2c1 [Compound I-1-4] | 88 | 100 | –
5 | Cc1ccn2c(C(=O)NCc3ccc(C4CCN(c5ccc(OCCF)cc5)CC4)c(F)c3)c(C)nc2c1 [Compound I-1-5] | 70 | 48 | –
6 | Cc1ccn2c(C(=O)NCc3ccc(C4CCN(c5ccc(OC(F)(F)F)cn5)CC4)c(C)c3)c(C)nc2c1 [Compound I-1-7] | 87 | 170 | –
7 | Cc1ccn2c(C(=O)NCc3ccc(C4CCN(c5ccc(OC(F)(F)F)cc5)CC4)cc3F)c(C)nc2c1 [Compound I-1-8] | 86 | 580 | –
8 | Cc1ccn2c(C(=O)NCc3ccc(C4CCN(c5ccc(OC(C)C)cc5)CC4)cc3F)c(C)nc2c1 [Compound I-1-9] | 82 | 940 | –
9 | CCc1nc2ccc(Cl)cn2c1C(=O)NCc1ccc(C2CCN(c3ccc(OC(F)(F)F)cc3)CC2)cc1F [Compound I-1-10] | 60 | 3.1 | –
10 | Cc1ccn2c(C(=O)NCc3ccc(C4CCN(c5ccc(OC(F)(F)F)cn5)CC4)cc3F)c(C)nc2c1 [Compound I-1-11] | 72 | 89 | –
11 | Cc1ccn2c(C(=O)NCc3ccc(N4CCN(c5ccc(OC(F)(F)F)cc5)[C@H](C)C4)c(F)c3)c(C)nc2c1 [Compound I-1-12] | 64 | 70 | –
12 | Cc1cc2nc(C)c(C(=O)NCc3ccc(C4CCN(c5ccc(OC(F)(F)F)cc5)CC4)c(F)c3)n2cc1Cl [Compound I-1-13] | 82 | 57 | –
13 | Cc1nc2cc(C(F)(F)F)ccn2c1C(=O)NCc1ccc(C2CCN(c3ccc(OC(F)(F)F)cc3)CC2)c(F)c1 [Compound I-1-14] | 79 | 760 | –
14 | Cc1ccn2c(C(=O)NCc3ccc(C4CCN(c5ccc(OC(F)(F)F)cc5)CC4)c(F)c3)c(C(F)(F)F)nc2c1 [Compound I-1-15] | 71 | 57 | –
15 | Cc1ccc2nc(C)c(C(=O)NCc3ccc(C4CCN(c5ccc(OC(F)(F)F)cc5)CC4)c(F)c3)n2c1 [Compound I-1-16] | 67 | 1.6 | –
16 | O=C(NCc1ccc(C2CCN(c3ccc(OC(F)(F)F)cc3)CC2)c(F)c1)c1c(C(F)(F)F)nc2ccc(Cl)cn12 [Compound I-1-17] | 63 | – | 13
17 | Cc1nc2ccc(F)cn2c1C(=O)NCc1ccc(C2CCN(c3ccc(OC(F)(F)F)cc3)CC2)c(F)c1 [Compound I-1-18] | 85 | 11 | –

Row | Structure (SMILES) | MS_h_% (remaining amount of compound after reaction, 0 minute = 100%) [1] [%] | IC85 [2, 3] [nM] | IC85 [2, 4] [nM]
18 | Cc1ccn2c(C(=O)NCc3ccc(C4CCN(c5cccc(OC(F)(F)F)c5)CC4)c(F)c3)c(C)nc2c1 [Compound I-1-19] | 87 | 130 | –
19 | CCc1nc2ccc(Cl)cn2c1C(=O)NCc1ccc(C2CCN(c3ccc(OC(F)(F)F)cc3)CC2)c(F)c1 [Compound I-1-20] | 83 | 33 | –
20 | Cc1ccn2c(C(=O)NCc3ccc(C4CCN(c5ccc(OCC(F)(F)F)cc5)CC4)c(F)c3)c(C)nc2c1 [Compound I-1-21] | 89 | 38 | –
21 | Cc1ccn2c(C(=O)NCc3ccc(C4CCN(c5ccc(OC(F)(F)F)cc5F)CC4)c(F)c3)c(C)nc2c1 [Compound I-1-22] | 87 | 28 | –
22 | Cc1ccn2c(C(=O)NCc3ccc(N4CCN(c5ccc(OC(F)(F)F)cc5)[C@@H](C)C4)c(F)c3)c(C(F)(F)F)nc2c1 [Compound I-1-23] | 85 | 45 | –
23 | C[C@H]1CN(c2ccc(CNC(=O)c3c(C(F)(F)F)nc4ccc(Cl)cn34)cc2F)CCN1c1ccc(OC(F)(F)F)cc1 [Compound I-1-24] | 62 | – | 32
24 | Cc1ccc2nc(C)c(C(=O)NCc3ccc(N4CCN(c5ccc(OC(F)(F)F)cc5)[C@@H](C)C4)c(F)c3)n2c1 [Compound I-1-25] | 72 | 2.2 | –
25 | Cc1nc2ccc(F)cn2c1C(=O)NCc1ccc(N2CCN(c3ccc(OC(F)(F)F)cc3)[C@@H](C)C2)c(F)c1 [Compound I-1-26] | 93 | 15 | –
26 | Cc1cc2nc(C)c(C(=O)NCc3ccc(N4CCN(c5ccc(OC(F)(F)F)cc5)[C@@H](C)C4)c(F)c3)n2cc1Cl [Compound I-1-27] | 80 | 33 | –
27 | CCc1nc2ccc(Cl)cn2c1C(=O)NCc1ccc(N2CCN(c3ccc(OC(C)C)cc3)C(C)(C)C2)c(F)c1 [Compound I-1-28] | 94 | 12 | –
28 | C[C@H]1CN(c2ccc(CNC(=O)c3c(C(F)(F)F)nc4ccc(Cl)cn34)cc2F)CCN1c1ccc(OC(F)(F)F)cc1 [Compound I-1-29] | 89 | – | 2.7
29 | O=C(NCc1ccc(C2CCN(c3ccc(OC(F)(F)F)cc3)CC2)c(F)c1)c1c(C(F)(F)F)nc2ccc(Cl)cn12 [Compound I-1-30] | 89 | – | 3.1
30 | Cc1ccn2c(C(=O)NCc3ccc(N4CCN(c5ccc(OC(F)(F)F)cc5)C(C)(C)C4)c(F)c3)c(C)nc2c1 [Compound I-1-31] | 82 | 140 | –
31 | CCc1nc2ccc(Cl)cn2c1C(=O)NCc1ccc(N2CCN(c3ccc(OC(F)(F)F)cc3)C(C)(C)C2)c(F)c1 [Compound I-1-32] | 62 | 9.1 | –
32 | Cc1nc2ccc(F)cn2c1C(=O)NCc1ccc(N2CCN(c3ccc(OC(F)(F)F)cc3)C(C)(C)C2)c(F)c1 [Compound I-1-33] | 85 | 68 | –
33 | CCc1nc2ccc(F)cn2c1C(=O)NCc1ccc(N2CCN(c3ccc(OC(F)(F)F)cc3)[C@@H](C)C2)c(F)c1 [Compound I-1-34] | 65 | 8 | –
34 | CCc1nc2cc(Cl)ccn2c1C(=O)NCc1ccc(N2CCN(c3ccc(OC(F)(F)F)cc3)[C@@H](C)C2)c(F)c1 [Compound I-1-35] | 91 | 26 | –
